Read-outs that look alike come from different tables or passages of the source.
System: H1650 cells
Assay: CellTiterGlo (CTG) cell viability, 3D, 120 h, H1650 (Example 8)
Type: cell-based, human
Method: H1650 cells were cultivated in RPMI supplemented with 10% heat inactivated fetal bovine serum, penicillin (100 IU/ml), streptomycin (100 μg/ml) and L-glutamine (2 mM). Cell lines were cultured at 37° C. in a humidified atmosphere containing 5% 002. Cells were seeded in 96 microwell round bottom plates (96 microwell Low attachment plates , Costar reference 7007) and exposed to the payloads or ADCs for 120 h (serially diluted; 9 concentrations each, duplicates). Effects of payloads or ADCs on cell viability were assessed after 5 days of incubation at 37° C./5% CO2 by quantification of cellular ATP levels using CellTiterGlo at 75 μL reagent/well. All the conditions were tested in duplicates. Luminescence was quantified on a multipurpose plate reader. IC50S were calculated using standard four-parametric curve fitting. […] Each experiment was performed at least twice, with results being reproducible.

[1] = H1650 3D, experiment n1, read-out: H1650 3D CTG IC50 n1
[2] = H1650 3D, experiment n2, read-out: H1650 3D CTG IC50 n2
[3] = H1650 3D, mean of n1 and n2, read-out: H1650 3D CTG IC50 Mean of n1 and n2
[4] = Homo sapiens, NCI-H1650, H1650 3D, experiment n1, read-out: H1650 3D CTG IC50 n1
[5] = Homo sapiens, NCI-H1650, H1650 3D, experiment n2, read-out: H1650 3D CTG IC50 n2
[6] = Homo sapiens, NCI-H1650, H1650 3D, mean of n1 and n2, read-out: H1650 3D CTG IC50 Mean of n1 and n2

SMILES | IC50 [4] | IC50 [5] | IC50 [6] | IC50 [1] | IC50 [2] | IC50 [3]
Cc1cc(N(C)c2nc(C(=O)O)c(CCCOc3ccc(C#CC[N+](C)(C)Cc4ccc(NC(=O)[C@H](CCCNC(N)=O)NC(=O)[C@@H](NC(=O)CCOCCN5C(=O)CC(C)C5=O)C(C)C)cc4)cc3F)s2)nnc1Nc1nc2ccccc2s1 (stereo partly drawn) [Ab C - L9A-P2] | – | – | – | 4.2 nM | 7 nM | 5.6 nM
Cc1c(Nc2nc3ccccc3s2)nnc2c1CCCN2c1nc(C(=O)[O-])c(CCCOc2ccc(C#CCN3CC[N+](C)(Cc4ccc(NC(=O)[C@H](CCCNC(N)=O)NC(=O)[C@@H](NC(=O)CCOCCN5C(=O)CC(C)C5=O)C(C)C)cc4)CC3)cc2F)s1 (stereo partly drawn) [Ab C - L9A-P10] | – | – | – | 0.3 nM | 0.5 nM | 0.4 nM
Cc1cc(N(C)c2nc(C(=O)[O-])c(CCCOc3ccc(C#CC[N+](C)(C)Cc4ccc(NC(=O)[C@H](C)NC(=O)[C@@H](NC(=O)CCOCCN5C(=O)CC(C)C5=O)C(C)C)cc4CC[C@@H]4O[C@H](C(=O)O)[C@@H](O)[C@H](O)[C@H]4O)cc3F)s2)nnc1Nc1nc2ccccc2s1 (stereo partly drawn) [Ab C - L106A-P2] | – | – | – | 1 nM | 0.7 nM | 0.85 nM
Cc1cc(N(C)c2nc(C(=O)[O-])c(CCCOc3ccc(C#CC[N+](C)(C)Cc4ccc(O[C@@H]5O[C@H](C(=O)O)[C@@H](O)[C@H](O)[C@H]5O)c(NC(=O)CCNC(=O)CCOCCN5C(=O)CC(C)C5=O)c4)cc3F)s2)nnc1Nc1nc2ccccc2s1 (stereo partly drawn) [Ab C - L108A-P2] | – | – | – | 2.1 nM | 0.97 nM | 1.54 nM

Now from value to molecule, other results behind:

IC50 [4] | IC50 [5] | IC50 [6] | SMILES | IC50 [1] | IC50 [2] | IC50 [3]
4 nM | 28 nM | 16 nM | CNCC#Cc1ccc(OCCCc2sc(N3CCCc4c3nnc(Nc3nc5ccccc5s3)c4C)nc2C(=O)O)c(F)c1 [P3, 2-{3-[(1,3-Benzothiazol-2-yl)amino]-4-methyl-5H,6H,7H,8H-pyrido[2,3-c]pyridazin-8-yl}-5-(3-{2-fluoro-4-[3-(methylamino)prop-1-yn-1-yl]phenoxy}propyl)-1,3-thiazole-4-carboxylic acid] | – | – | –
0.7 nM | 1.2 nM | 0.95 nM | Cc1cc(N(C)c2nc(C(=O)O)c(CCCOc3ccc(C#CC(C)N(C)C)cc3F)s2)nnc1Nc1nc2ccccc2s1 (stereo not drawn) [P11, 2-[[6-(1,3-Benzothiazol-2-ylamino)-5-methyl-pyridazin-3-yl]-methyl-amino]-5-[3-[4-[3-(dimethylamino)but-1-ynyl]-2-fluoro-phenoxy]propyl]thiazole-4-carboxylic acid] | – | – | –
0.95 nM | 2 nM | 1.48 nM | Cc1c(Nc2nc3ccccc3s2)nnc2c1CCCN2c1nc(C(=O)O)c(CCCOc2ccc(C#CCNCCN(C)C)cc2F)s1 [P12, 2-[3-(1,3-Benzothiazol-2-ylamino)-4-methyl-6,7-dihydro-5H-pyrido[2,3-c]pyridazin-8-yl]-5-[3-[4-[3-[2-(dimethylamino)ethylamino]prop-1-ynyl]-2-fluoro-phenoxy]propyl]thiazole-4-carboxylic acid] | – | – | –
1.9 nM | 5.4 nM | 3.65 nM | CCN(CC)CC#Cc1ccc(OCCCc2sc(N3CCCc4c3nnc(Nc3nc5ccccc5s3)c4C)nc2C(=O)O)c(F)c1 [P14, 2-[3-(1,3-Benzothiazol-2-ylamino)-4-methyl-6,7-dihydro-5H-pyrido[2,3-c]pyridazin-8-yl]-5-[3-[4-[3-(diethylamino)prop-1-ynyl]-2-fluoro-phenoxy]propyl]thiazole-4-carboxylic acid] | – | – | –
0.98 nM | 1.2 nM | 1.09 nM | Cc1c(Nc2nc3ccccc3s2)nnc2c1CCCN2c1nc(C(=O)O)c(CCCOc2ccc(C#CCN3CCC(F)(F)CC3)cc2F)s1 [P15, 2-{3-[(1,3-Benzothiazol-2-yl)amino]-4-methyl-5H,6H,7H,8H-pyrido[2,3-c]pyridazin-8-yl}-5-(3-{4-[3-(4,4-difluoropiperidin-1-yl)prop-1-yn-1-yl]-2-fluorophenoxy}propyl)-1,3-thiazole-4-carboxylic acid] | – | – | –

— patent US20240269304A1, “BCL-XL INHIBITOR ANTIBODY-DRUG CONJUGATES AND METHODS OF USE THEREOF” (Novartis AG, priority 2020, published 2024)
